target: GST-tagged truncated human mutant G2019S LRRK2 (Homo sapiens, UniProt Q5S007, G2019S); assay: LRRK2 G2019S Km ATP LanthaScreen assay; format: biochemical; conditions: 134 μM ATP (Km ATP), LRRKtide substrate, mean IC50 values; read-out: LRRK2 pIC50 (converted)
Procedure, shortened: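 LanthaScreen TR-FRET read with fluorescein-LRRKtide and 134 μM ATP (Km) in Tris pH 8.5/10 mM MgCl2 buffer. The enzyme was preincubated 15 min with compound at room temperature, and the reaction ran 90 min at ambient temperature. Stopped with EDTA plus Tb anti-phospho-LRRKtide antibody; the 520/495 nm ratio gave a 4-parameter logistic IC50, mean of several runs.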

SMILES | IC50
COCC12CC(n3cc(Nc4ncc5cc(Cl)c(N6CCC7(CCOC7)CC6)cc5n4)cn3)(C1)C2 [Ex-3.33, 6-chloro-N-{1-[3-(methoxymethyl)bicyclo[1.1.1]pentan-1-yl]-1H-pyrazol-4-yl}-7-(2-oxa-8-azaspiro [4.5]decan-8-yl)quinazolin-2-amine] | 1.15 nM
COCC12CC(n3cc(Nc4ncc5cc(Cl)c(N6CCC7(CCCO7)CC6)cc5n4)cn3)(C1)C2 [Ex-3.34, 6-chloro-N-{1-[3-(methoxymethyl)bicyclo[1.1.1]pentan-1-yl]-1H-pyrazol-4-yl}-7-(1-oxa-8-azaspiro [4.5]decan-8-yl)quinazolin-2-amine] | 0.594 nM
O=C1COCC12CCN(c1cc3nc(Nc4cnn(C5CC5)c4Cl)ncc3cc1Cl)CC2 [Ex-3.36, 8-{6-chloro-2-[(5-chloro-1-cyclopropyl-1H-pyrazol-4-yl)amino]quinazolin-7-yl}-2-oxa-8-azaspiro[4.5]decan-4-one] | 3.02 nM
C[C@]1(O)[C@@H]2CC[C@H]1CN(c1cc3nc(Nc4cnn(C56CC(C5)C6)c4Cl)ncc3cc1Cl)C2 [Ex-3.38, (8-syn)-3-(2-{[1-(bicyclo[1.1.1]pentan-1-yl)-5-chloro-1H-pyrazol-4-yl]amino}-6-chloroquinazolin-7-yl)-8-methyl-3-azabicyclo[3.2.1]octan-8-ol] | 6.62 nM
Clc1cc2cnc(Nc3cnn(C45CC(C4)C5)c3Cl)nc2cc1N1CCC2(CCOC2)CC1 [Ex-3.39, N-[1-(bicyclo[1.1.1]pentan-1-yl)-5-chloro-1H-pyrazol-4-yl]-6-chloro-7-(2-oxa-8-azaspiro[4.5]decan-8-yl) quinazolin-2-amine] | 3.23 nM
Clc1cc2cnc(Nc3cnn(C45CC(C4)C5)c3Cl)nc2cc1N1CCC2(CCCO2)CC1 [Ex-3.40, N-[1-(bicyclo[1.1.1]pentan-1-yl)-5-chloro-1H-pyrazol-4-yl]-6-chloro-7-(1-oxa-8-azaspiro[4.5]decan-8-yl) quinazolin-2-amine] | 9.76 nM
CNc1cc2nc(Nc3cnn(C4CCN(C5(C)COC5)CC4)c3Cl)ncc2cc1Cl [Ex-3.44, 6-chloro-N~2~-{5-chloro-1-[1-(3-methyloxetan-3-yl)piperidin-4-yl]-1H-pyrazol-4-yl}-N~7~-methyl-quinazoline-2,7-diamine] | 19.5 nM
CCNc1cc2nc(Nc3cnn(C4CCN(C5(C)COC5)CC4)c3Cl)ncc2cc1Cl [Ex-3.45, 6-chloro-N~2~-{5-chloro-1-[1-(3-methyloxetan-3-yl)piperidin-4-yl]-1H-pyrazol-4-yl}-N~7~- ethylquinazoline-2,7-diamine] | 23.5 nM
CC(C)Nc1cc2nc(Nc3cnn(C4CCN(C5(C)COC5)CC4)c3Cl)ncc2cc1Cl [Ex-3.46] | 15 nM
CC(C)Nc1ccc2cnc(Nc3cnn(C4CCN(C5(C)COC5)CC4)c3Cl)nc2c1Cl [Ex-3.53, 8-chloro-N~2~-{5-chloro-1-[1-(3-methyloxetan-3-yl)piperidin-4-yl]-1H-pyrazol-4-yl}-N~7~- (propan-2-yl)quinazoline-2,7-diamine] | 6.88 nM
CC1(O)CCN(c2cc3nc(Nc4cnn(C5CC5)c4Cl)ncc3cc2C#N)CC1 [Ex-3.54, 2-[(5-chloro-1-cyclopropyl-1H-pyrazol-4-yl)amino]-7-(4-hydroxy-4-methylpiperidin-1-yl)quinazoline-6-carbonitrile] | 8.43 nM
Cc1cc2cnc(Nc3cnn(C4CC4)c3Cl)nc2cc1N1CCC(C)(O)CC1 [Ex-3.55, 1-{2-[(5-chloro-1-cyclopropyl-1H-pyrazol-4-yl)amino]-6-methylquinazolin-7-yl}-4-methylpiperidin-4-ol] | 12.1 nM
Cc1c(N2CCN(C3(C)COC3)CC2)c(Cl)cc2cnc(Nc3cnn(CC(F)(F)F)c3)nc12 [Ex-4.3, 6-Chloro-8-methyl-7-(4-(3-methyloxetan-3-yl)piperazin-1-yl)-N-(1-(2,2,2-trifluoroethyl)-1H-pyrazol-4-yl)quinazolin-2-amine] | 3.36 nM
O=C1C2CCC(C2)N1c1ccc2cnc(Nc3ccn(CC(F)(F)F)n3)nc2c1 (stereo not drawn) [Ex-4.8, 2-(2-{[1-(2,2,2-trifluoroethyl)-1H-pyrazol-3-yl]amino}quinazolin-7-yl)-2-azabicyclo[2.2.1]heptan-3-one] | 8.95 nM
CC(C)Nc1ccc2cnc(Nc3cnn(C4CCN(C5(C)COC5)CC4)c3)nc2c1 [Ex-4.9, N~2~-{1-[1-(3-methyloxetan-3-yl)piperidin-4-yl]-1H-pyrazol-4-yl}-N~7~-(propan-2-yl)quinazoline-2,7-diamine] | 9.16 nM
CC1CCN1c1cc2nc(Nc3cnn(C4CN(CC(C)(C)O)C4)c3)ncc2cc1Cl (stereo not drawn) [Ex-4.10, 1-[3-(4-{[6-chloro-7-(2-methylazetidin-1-yl)quinazolin-2-yl]amino}-1H-pyrazol-1-yl)azetidin-1-yl]-2-methylpropan-2-ol] | 34.3 nM
CC1CCN1c1cc2nc(Nc3cnn(C4CCN(C5(C)COC5)CC4)c3)ncc2cc1Cl (stereo not drawn) [Ex-4.11, 6-chloro-7-(2-methylazetidin-1-yl)-N-{1-[1-(3-methyloxetan-3-yl)piperidin-4-yl]-1H-pyrazol-4-yl}quinazolin-2-amine] | 35.3 nM

SMILES | IC50
Cc1c(Nc2ncc3cc(Cl)c(N4CCN(C5(C)COC5)CC4)cc3n2)cnn1CCF [Ex-4.12, 6-chloro-N-[1-(2-fluoroethyl)-5-methyl-1H-pyrazol-4-yl]-7-[4-(3-methyloxetan-3-yl)piperazin-1-yl]quinazolin-2-amine] | 0.625 nM
CCn1ncc(Nc2ncc3cc(Cl)c(N4CCN(C5(C)COC5)CC4)cc3n2)c1C [Ex-4.13, 6-chloro-N-(1-ethyl-5-methyl-1H-pyrazol-4-yl)-7-[4-(3-methyloxetan-3-yl)piperazin-1-yl]quinazolin-2-amine] | 6.83 nM
Cc1c(Nc2ncc3cc(Cl)c(N4CCN(C5COC5)[C@@H](C)C4)cc3n2)cnn1CCF [Ex-4.14, 6-chloro-N-[1-(2-fluoroethyl)-5-methyl-1H-pyrazol-4-yl]-7-[(3S)-3-methyl-4-(oxetan-3-yl)piperazin-1-yl]quinazolin-2-amine] | 0.969 nM
Cn1ncc(Nc2ncc3cc(Cl)c(N4CCN(C5(C)COC5)CC4)cc3n2)c1C(F)(F)F [Ex-4.15, 6-chloro-7-[4-(3-methyloxetan-3-yl)piperazin-1-yl]-N-[1-methyl-5-(trifluoromethyl)-1H-pyrazol-4-yl]quinazolin-2-amine] | 19.3 nM
CC1(N2CCN(c3cc4nc(Nc5cnn(C6(C)CC6)c5)ncc4cc3Cl)CC2)COC1 [Ex-4.16, 6-chloro-N-[1-(1-methylcyclopropyl)-1H-pyrazol-4-yl]-7-[4-(3-methyloxetan-3-yl)piperazin-1-yl]quinazolin-2-amine] | 1.12 nM
CC1(N2CCN(c3cc4nc(Nc5cnn(C6CC6)c5Cl)ncc4cc3Cl)CC2)COC1 [Ex-4.17, 6-chloro-N-(5-chloro-1-cyclopropyl-1H-pyrazol-4-yl)-7-[4-(3-methyloxetan-3-yl)piperazin-1-yl]quinazolin-2-amine] | 2.32 nM
CC1(N2CCN(c3cc4nc(Nc5cnn(C6CC6)c5)ncc4cc3Cl)CC2)COC1 [Ex-4.18, 6-chloro-N-(1-cyclopropyl-1H-pyrazol-4-yl)-7-[4-(3-methyloxetan-3-yl)piperazin-1-yl]quinazolin-2-amine] | 2.39 nM
CC1(N2CCN(c3cc4nc(Nc5cnn(CC(F)(F)F)c5)ncc4cc3Cl)CC2)COC1 [Ex-4.19, 6-chloro-7-[4-(3-methyloxetan-3-yl)piperazin-1-yl]-N-[1-(2,2,2-trifluoroethyl)-1H-pyrazol-4-yl]quinazolin-2-amine] | 3.03 nM
CC1(N2CCN(c3cc4nc(Nc5cnn6c5CCC6)ncc4cc3Cl)CC2)COC1 [Ex-4.20, 6-chloro-N-(5,6-dihydro-4H-pyrrolo[1,2-b]pyrazol-3-yl)-7-[4-(3-methyloxetan-3-yl)piperazin-1-yl]quinazolin-2-amine] | 2.59 nM
Cn1cc(Nc2ncc3cc(Cl)c(N4CCN(C5(C)COC5)CC4)cc3n2)c(C(F)(F)F)n1 [Ex-4.21, 6-chloro-7-[4-(3-methyloxetan-3-yl)piperazin-1-yl]-N-[1-methyl-3-(trifluoromethyl)-1H-pyrazol-4-yl]quinazolin-2-amine] | 36.8 nM
CC1(N2CCN(c3cc4nc(Nc5cnn(C6(C)CC6)c5Cl)ncc4cc3Cl)CC2)COC1 [Ex-4.22, 6-chloro-N-[5-chloro-1-(1-methylcyclopropyl)-1H-pyrazol-4-yl]-7-[4-(3-methyloxetan-3-yl)piperazin-1-yl]quinazolin-2-amine] | 0.625 nM
CC1(O)CC2(CN(c3cc4nc(Nc5cnn(C6CC6)c5)ncc4cc3Cl)C2)C1 [Ex-4.23, 2-{6-chloro-2-[(1-cyclopropyl-1H-pyrazol-4-yl)amino]quinazolin-7-yl}-6-methyl-2-azaspiro[3.3]heptan-6-ol] | 2.47 nM
CC1CCC12CN(c1cc3nc(Nc4cnn(C5(C)CC5)c4Cl)ncc3cc1Cl)C2 (stereo not drawn) [Ex-4.24, 6-chloro-N-[5-chloro-1-(1-methylcyclopropyl)-1H-pyrazol-4-yl]-7-(5-methyl-2-azaspiro[3.3]heptan-2-yl)quinazolin-2-amine] | 218 nM
CC1(O)CC2(CN(c3cc4nc(Nc5cnn(C6(C)CC6)c5Cl)ncc4cc3Cl)C2)C1 [Ex-4.27, 2-(6-chloro-2-{[5-chloro-1-(1-methylcyclopropyl)-1H-pyrazol-4-yl]amino}quinazolin-7-yl)-6-methyl-2-azaspiro[3.3]heptan-6-ol] | 1.6 nM
CC1(O)CC2(CN(c3cc4nc(Nc5cnn(C6CC6)c5Cl)ncc4cc3Cl)C2)C1 [Ex-4.28, 2-{6-chloro-2-[(5-chloro-1-cyclopropyl-1H-pyrazol-4-yl)amino]quinazolin-7-yl}-6-methyl-2-azaspiro[3.3]heptan-6-ol] | 1.05 nM
CCC1(N2CCN(c3cc4nc(Nc5cnn(C6(C)CC6)c5Cl)ncc4cc3Cl)CC2)COC1 [Ex-4.29, 6-chloro-N-[5-chloro-1-(1-methylcyclopropyl)-1H-pyrazol-4-yl]-7-[4-(3-ethyloxetan-3-yl)piperazin-1-yl]quinazolin-2-amine] | 5.28 nM

Reference: patent US20230303540A1 (Merck Sharp & Dohme LLC, priority 2020, published 2023)
